# In the supplement of paper PMC11821682:
# What was measured:
# [1] = tested on: Danio rerio embryo; assay: BMC10 any morphological effect or mortality at 120 hpf; higher = less toxic
# Method: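 ZBEscreen: dechorionated Tropical 5D zebrafish embryos were exposed from 4 hpf in 96-well plates (1% DMSO, 28 °C). All compounds were first tested at 100 µM; hits were retested at 0.005-100 µM. Morphology and mortality were scored at 120 hpf and fitted as BMC10 (3-parameter log-logistic, extra risk). The embryonic photomotor response at 24 hpf and the larval photomotor response at 120 hpf are given as lowest effect levels (K-S test, p<0.01). NA = not significant up to 100 µM; NT = not tested.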
# [2] = tested on: HL-60; assay: Cell Health Index (toxicity pseudo-probability over dose series) (index 0-1); higher = more cytotoxic / cell stress;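 also: HL-60 cells exposed 4 h at 37 °C to ten threefold dilutions spanning 5 nM to 100 µM, multiparametric flow cytometry features scored by machine-learning classification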
Structure (SMILES),BMC10 any morphological effect or mortality [1] [µM],Cell Health Index [2]
CC(C)(C)NC(=O)N[C@H](C(=O)N1C[C@H]2[C@@H]([C@H]1C(=O)NC(CC1CCC1)C(=O)C(N)=O)C2(C)C)C(C)(C)C (some centres not stated) [Boceprevir],> 100,0.228
N=C(N)NCCC[C@H](NC(=O)c1ccc2ccccc2c1O)C(=O)N1CCC[C@H]1C(N)=O.O=C(O)C(F)(F)F [APC 366],> 100,0.223
CCCCCCOC(=O)NC(=N)c1ccc(NCc2nc3cc(C(=O)N(CCC(=O)OCC)c4ccccn4)ccc3n2C)cc1 [Dabigatran etexilate],> 100,0.832
CCC(CC)[C@H](NC(C)=O)[C@@H]1[C@H](O)[C@@H](C(=O)O)C[C@H]1NC(=N)N [Peramivir],> 100,0.202
CC(=O)Oc1ccccc1C(=O)O [Aspirin],> 100,0.198
CCCCCCCCCCCCCCCCCCCCCCO [Docosanol],> 100,0.266
"O=C(/C=C/c1ccc(O)c(O)c1)O[C@@H]1C[C@](O)(C(=O)O)C[C@@H](OC(=O)/C=C/c2ccc(O)c(O)c2)[C@H]1O [3,5-Dicaffeoylquinic acid]",> 100,0.614
COc1cccc(N2CCN(C3=Nc4c(F)cccc4[C@H](CC(=O)O)N3c3cc(C(F)(F)F)ccc3OC)CC2)c1 [Letermovir],> 100,0.303
CCOC(=O)CN[C@@H](C(=O)N1CC[C@H]1C(=O)NCc1ccc(C(=N)NO)cc1)C1CCCCC1 [Ximelagatran],> 100,0.193
O=C1C=CC[C@@H]2[C@H]3CCCN4CCC[C@@H](CN12)[C@@H]34 [Sophocarpine],> 100,0.164
CCCNC(=O)[C@H]1O[C@@H]1C(=O)N[C@H](C(=O)N1CCC[C@H]1C(=O)O)[C@@H](C)CC [CA-074],> 100,0.179
COc1c(-c2ccc3cc(NS(C)(=O)=O)ccc3c2)cc(-n2ccc(=O)[nH]c2=O)cc1C(C)(C)C [Dasabuvir],> 100,0.608
C#Cc1cn([C@H]2C[C@H](O)[C@@H](CO)O2)c(=O)nc1N [5'-Ethynyl-2'-deoxycytidine],> 100,0.13
CC(C)Nc1cccnc1N1CCN(C(=O)c2cc3cc(NS(C)(=O)=O)ccc3[nH]2)CC1.CS(=O)(=O)O [Delavirdine],> 100,0.324
OC[C@H]1O[C@@H](O[C@H]2C(O)O[C@H](CO)[C@@H](O)[C@@H]2O)[C@H](O)[C@@H](O)[C@@H]1O (some centres not stated) [Sophorose],> 100,0.187
O=C(O[C@@H]1Cc2c(O)cc(O)cc2O[C@@H]1c1cc(O)c(O)c(O)c1)c1cc(O)c(O)c(O)c1 [(-)-Epigallocatechin gallate],> 100,0.854
COc1cc(C(=O)NCc2ccc(OCCN(C)C)cc2)cc(OC)c1OC.Cl [Trimethobenzamide],> 100,0.194
Nc1nc(NC2CC2)c2ncn([C@H]3C=C[C@@H](CO)C3)c2n1.O=S(=O)(O)O [Abacavir],> 100,0.116
Nc1n[nH]c2nnc(-c3c(-c4ccccc4)nn4ccccc34)cc12,> 100,0.299
CCO.C[C@H]1c2cccc(O)c2C(=O)C2=C(O)[C@]3(O)C(=O)C(C(N)=O)=C(O)[C@@H](N(C)C)C3[C@@H](O)C21.C[C@H]1c2cccc(O)c2C(=O)C2=C(O)[C@]3(O)C(=O)C(C(N)=O)=C(O)[C@@H](N(C)C)C3[C@@H](O)C21.Cl.Cl.O (some centres not stated) [Doxycycline],> 100,0.591
CCCOCCCCCCCCCC(=O)O [10-propoxy-Decanoic acid],> 100,0.168
C[C@H]1[C@H](C)CC[C@]2(C(=O)O)CC[C@]3(C)C(=CC[C@@H]4[C@@]5(C)C[C@@H](O)[C@H](O)[C@@](C)(CO)[C@@H]5CC[C@]43C)[C@H]12 [Asiatic acid],> 100,0.478
O=C1O[C@@H]2[C@H]3OC(=O)c4cc(O)c(O)c(O)c4-c4c(cc(O)c(O)c4O)C(=O)OC[C@@H]2OC(OC(=O)c2cc(O)c(O)c(O)c2)[C@H]3OC(=O)c2cc(O)c(O)c3c2C2C1=CC(=O)C(O)(O3)C2(O)O (some centres not stated) [Geraniin],> 100,0.824

Structure (SMILES),BMC10 any morphological effect or mortality [1] [µM],Cell Health Index [2]
Cc1cnc(C(=O)N[C@H]2CCCCC/C=C\[C@@H]3C[C@@]3(C(=O)NS(=O)(=O)C3CC3)NC(=O)[C@@H]3C[C@@H](Oc4nc5ccccc5c5ccccc45)CN3C2=O)cn1 [Paritaprevir],> 100,0.626
O=c1c(O[C@@H]2O[C@H](CO)[C@H](O)[C@H](O)[C@H]2O)c(-c2ccc(O)c(O)c2)oc2cc(O)cc(O)c12 [Quercetin 3-D-galactoside],> 100,0.218
Nc1ccc(-c2nc3ccc(-c4nc5cc(N)ccc5[nH]4)cc3[nH]2)cc1 [Ro 90-7501],> 100,0.512
Cc1cccc(C)c1N(CC(=O)Nc1ccc(-c2ncon2)cc1)C(=O)C1CCS(=O)(=O)CC1 [Amenamevir],> 100,0.215
CC(C)OC(=O)[C@H](C)N[P@](=O)(CO[C@H](C)Cn1cnc2c(N)ncnc21)Oc1ccccc1 [GS-7340],> 100,0.202
Cc1ccc(S(=O)(=O)OCC(=O)Nc2ccc(C(=O)O)c(O)c2)cc1 [S3I-201],> 100,0.259
C[C@@H]1O[C@@H](O[C@@H]2[C@@H](O)[C@H](OCCc3ccc(O)c(O)c3)O[C@H](CO)[C@H]2OC(=O)/C=C/c2ccc(O)c(O)c2)[C@H](O)[C@H](O)[C@H]1O [Verbascoside],> 100,0.843
Nc1ccn([C@@H]2CS[C@H](CO)O2)c(=O)n1 [Lamivudine],> 100,0.2
COc1ccc(C[C@H]2COC(=O)[C@@H]2Cc2ccc(O[C@@H]3O[C@H](CO)[C@@H](O)[C@H](O)[C@H]3O)c(OC)c2)cc1OC [Arctiin],> 100,0.192
O=c1[nH]c(=O)n([C@H]2C[C@H](O)[C@@H](CO)O2)cc1CO [5-Hydroxymethyl-2'-deoxyuridine],> 100,0.178
Cl.OC[C@H]1NC[C@H](O)[C@@H](O)[C@@H]1O [Duvoglustat],> 100,0.147
CO[C@@H]1[C@H](OC(=O)/C=C/C=C/C=C/C=C/C(=O)O)CC[C@]2(CO2)[C@H]1[C@@]1(C)O[C@@H]1CC=C(C)C [Fumagillin],> 100,0.187
CCCCN(CCCC)CC(O)c1cc(Cl)cc2c1-c1ccc(Cl)cc1/C2=C/c1ccc(Cl)cc1 (configuration not stated) [Lumefantrine],> 100,0.218
CCC[C@H](NC(=O)[C@@H]1[C@H]2CCC[C@H]2CN1C(=O)[C@@H](NC(=O)[C@@H](NC(=O)c1cnccn1)C1CCCCC1)C(C)(C)C)C(=O)C(=O)NC1CC1 [Telaprevir],> 100,0.402
Nc1ccc(C(=O)Nc2cccc(-c3nc(N4CCOCC4)c4oc5ncccc5c4n3)c2)cn1,> 100,0.615
COC(=O)N[C@H](C(=O)NNC[C@H](O)[C@H](Cc1ccccc1)NC(=O)[C@@H](NC(=O)OC)C(C)(C)C)C(C)(C)C [Des(benzylpyridyl) Atazanavir],> 100,0.207
CCN(CC)CCCC(C)Nc1ccnc2cc(Cl)ccc12.O=P(O)(O)O.O=P(O)(O)O (configuration not stated) [Chloroquine],> 100,0.236
CC(N)C12C[C@H]3C[C@@H](C1)C[C@@H](C2)C3.Cl (some centres not stated) [Rimantadine],> 100,0.137
O=c1[nH]c(=O)n([C@H]2C[C@H](O)[C@@H](CO)O2)cc1C(F)(F)F [Trifluorothymidine],> 100,0.138
CN(C)C(=O)COC(=O)Cc1ccc(OC(=O)c2ccc(NC(=N)N)cc2)cc1.CS(=O)(=O)O [Camostat],> 100,0.162
O=C(CCc1ccc(O)cc1)c1c(O)cc(O[C@@H]2O[C@H](CO)[C@@H](O)[C@H](O)[C@H]2O)cc1O [Trilobatin],> 100,0.183
CC(=O)Nc1nc(C)c(-c2ccc(Cl)c(S(=O)(=O)NCCO)c2)s1 [PIK-93],> 100,0.267
CC(C)(O)[C@@H]1CC[C@](C)([C@H]2[C@@H](O)C[C@@]3(C)[C@@H]4C[C@H](O[C@@H]5O[C@H](CO)[C@@H](O)[C@H](O)[C@H]5O)[C@H]5C(C)(C)[C@@H](O[C@@H]6OC[C@@H](O)[C@H](O)[C@H]6O)CC[C@@]56C[C@@]46CC[C@]23C)O1 [Astragaloside IV],> 100,0.16
